This is an account of results in patent publication US12428428B2, “Tricyclic tetrahydroisoquinoline derivative, preparation method therefor and application thereof in medicine” (JIANGSU HENGRUI MEDICINE CO., LTD., priority 2020, dated 2025).

Assay type in all cases: cell-based
One assay concerns MCF-7 cells. The assay is described as follows: Inhibition of proliferation of MCF-7 cells (ATP method, Cell Titer-Glo). The following applies: for IC50: Homo sapiens, MCF7, MCF-7 cells, 72 h; for inhibitory effects on the proliferation of MCF-7 cells (in words): conclusion. How it is done:
This experiment was intended to test the inhibitory effects of the compounds disclosed herein on the proliferation of MCF-7 Cells by using the ATP method, and to evaluate the in vitro activity of the compounds according to the IC50 values.
MCF-7 cells (TCHu74, National Collection of Authenticated Cell Cultures) were seeded into a 96-well plate with an MEM (hyclone, SH30024.01B) medium containing 10% FBS (Gibco, 10099-141), 1% sodium pyruvate (sigma, 58636) and 1% non-essential amino acid (sigma, M7145) at a density of 4,000 cells/well and cultured at 37° C. with 5% CO2. 20 mM stock solutions of the compounds are prepared, serially diluted with 100% DMSO to a final concentration of 1000×, and then diluted 20-fold with a medium containing 2% FBS. After the cells were cultured for 24 h, the medium was removed. 90 μL of the medium containing 2% FBS and 10 μL of a drug were added to each well, and 10 μL of DMSO was added to the control group. The mixtures were well mixed by gentle shaking. The blank group contained only 100 μL of the medium containing 2% FBS. The cells were cultured in an incubator at 37° C. with 5% CO2 for 72 h, and then 50 μL of mixed Cell Titer-Glo (Promega, G7571) was added to each well. The mixtures were well mixed by shaking and let stand at room temperature for 10 min, and the chemiluminescence signal values were determined.
The chemiluminescence signal value was plotted against the compound concentration (in log form) using Graphpad Prism, and the IC50 values of the compounds were obtained.
In general terms: Cellular ATP, detected with luciferase, serves as a proxy for viable cell number.

The target of the next assay is ERα (Homo sapiens (Human), UniProt P03372). The assay is described as follows: Degradation of ERα in MCF-7 cells (ELISA). The settings on record: for DC50: MCF-7 cells, 16 to 18 h, read-out: EC50 (nM), degradation of ERα; for degradation of ERα (in words): conclusion. As for the experimental part:
ERα-positive breast cancer cell line MCF-7 cells were cultured in a DMEM/F12 medium (HyClone, SH30023.01) containing 10% fetal bovine serum (Corning, 35-010-CV). […] The following day the compounds were serially diluted with DMSO and further diluted with the phenol red-free DMEM/F12 medium containing 5% charcoal-stripped fetal bovine serum. 20 μL of a diluted compound was added to each well of the 48-well plate at final concentrations of 3000, 300, 30, 3, 0.3, 0.03 and 0.003 nM. The 48-well plate was placed in the incubator for 16 to 18 h. A 96-well plate was coated with the capture antibody from the human ERα/NR3A1 total protein assay kit (R&D, DYC5715-5). […] The plate was placed in an incubator at 26° C. overnight. On day 3, the antibody-coated 96-well plate was washed once with PBS, and 200 μL of PBS containing 1% BSA was added to each well. The plate was incubated in an incubator at 37° C. for 1.5 h to be blocked. The cell culture medium supernatant was discarded. The cells were washed once with PBS, and 60 μL of a cell lysis buffer was added to each well. […] The cells were lysed on ice for 15 min, and 300 μL of PBS containing 1 mM EDTA and 0.5% TritonX-100 was added to each well to dilute the urea to 1 M. The blocking buffer in the blocked 96-well plate was discarded, and 100 μL of diluted cell lysis buffer was added to each well. The plate was incubated in an incubator at 37° C. for 2 h and washed 5 times with PBS. A biotinylated assay antibody was diluted to 0.4 μg/mL with PBS containing 1% BSA, and then 100 μL of the assay antibody was added to each well. The plate was incubated in an incubator at 37° C. for 1 h. The plate was then washed five more times, and 100 μL of avidin-HRP diluted 200-fold with PBS containing 1% BSA was added to each well. The plate was incubated at 37° C. for 30 min. The plate was washed five more times, and 100 μL of TMB substrate was added to each well. The plate was incubated at room temperature until blue color appeared, and 100 μL of stop solution was added to each well. OD450 signal values were read using a PHERAstar multi-mode microplate reader. The IC50 values for the inhibitory activity of the compounds were calculated using Graphpad Prism software.

A further assay deals with ER (estrogen receptor) (Homo sapiens (Human), UniProt P03372). Put plainly: Inhibition of binding of E to ER (MCF-7/ERE-luciferase reporter cells). The settings on record: MCF-7/ERE-luciferase cells, 0.1 nM estradiol, 24 h. As for the experimental part: The compounds of the present disclosure can inhibit the binding of E (estrogen) to ER (estrogen receptor), thereby blocking the binding of the complex of E and ER to ERE (estrogen response element), and consequently the expression of downstream luciferase proteins. The inhibitory effects of the compounds of the present disclosure on the binding of E to ER was tested by using the following method.
An ERE was cloned upstream of the luciferase gene, and MCF-7/ERE-luciferase monoclonal cells were selected by transfection of MCF-7 (TCHu74, National Collection of Authenticated Cell Cultures). The MCF-7/ERE-luciferase cells were seeded into a 96-well plate with an MEM (hyclone, SH30024.01B) medium containing 10% charcoal stripped FBS (Moregate, FBSF), 1% sodium pyruvate (sigma, S8636), 1% non-essential amino acids (sigma, M7145) and 500 μg/mL G418 at a density of 30,000 cells/well and cultured at 37° C. with 5% CO2. 20 mM stock solutions of the drugs are prepared, serially diluted 10-fold with 100% DMSO, and then diluted 20-fold with the medium. After the cells were cultured for 24 h, the medium was removed. 0.1 nM estradiol (sigma, E2758) and 10 μL of a medium-diluted drug were added to each well, and DMSO was added to the control group. The mixtures were well mixed by gentle shaking. The cells were cultured in an incubator at 37° C. with 5% CO2 for 24 h, and then the cell culture liquid was removed, followed by the addition of 50 μL of a luciferase substrate (Promega, E6110) to each well. The plate was let stand at room temperature in the dark for 10-15 min, and the chemiluminescence signal values were determined.
The inhibitory effects of the compounds of the present disclosure on the binding of E to ER were tested through the above experiment. The chemiluminescence signal value was plotted against the compound concentration (in log form) using Graphpad Prism, and the IC50 values of the compounds were obtained.

A value given as a limit tells only on which side of the number the result lay.

ERα, sequence (P03372 whole entry): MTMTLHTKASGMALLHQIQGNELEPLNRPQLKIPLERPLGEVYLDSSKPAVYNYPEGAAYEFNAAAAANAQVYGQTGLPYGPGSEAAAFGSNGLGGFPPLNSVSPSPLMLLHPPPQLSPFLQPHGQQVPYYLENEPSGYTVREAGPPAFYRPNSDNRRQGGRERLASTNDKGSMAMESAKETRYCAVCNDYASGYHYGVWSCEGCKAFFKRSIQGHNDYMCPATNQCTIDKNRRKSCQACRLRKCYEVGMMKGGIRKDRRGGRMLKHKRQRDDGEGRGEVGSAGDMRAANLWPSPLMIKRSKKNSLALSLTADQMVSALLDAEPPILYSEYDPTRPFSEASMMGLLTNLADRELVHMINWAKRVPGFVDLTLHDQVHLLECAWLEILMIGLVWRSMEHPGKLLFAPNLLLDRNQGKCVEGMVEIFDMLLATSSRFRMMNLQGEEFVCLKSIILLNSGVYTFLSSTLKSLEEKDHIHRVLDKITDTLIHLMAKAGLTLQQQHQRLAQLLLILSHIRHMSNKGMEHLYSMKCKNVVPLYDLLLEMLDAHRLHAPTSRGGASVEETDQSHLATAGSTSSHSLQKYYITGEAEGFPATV
ER (estrogen receptor), sequence (P03372 whole entry): as above

Regarding `C[C@@H]1Cc2ccc3c(c2[C@@H](c2ccc(NC4CN(CCCF)C4)cn2)N1CC(F)(F)CO)C(=O)NC3=O` [Example 20, (7R,9S)-8-(2,2-difluoro-3-hydroxypropyl)-9-(5-((1-(3-fluoropropyl)azetidin-3-yl)amino)pyridin-2-yl)-7-methyl-6,7,8,9-tetrahydro-1H-pyrrolo[3,4-h]isoquinoline-1,3(2H)-dione, reference compound], in the assay on MCF-7 cells, the IC50 is more than 10000 nM and the “inhibitory effects on the proliferation of MCF-7 cells (in words)” value was “no activity”. In addition, on ERα, the DC50 is more than 10000 nM and the “degradation of ERα (in words)” value was “no activity”.

On to `C[C@@H]1Cc2ccc3c(=O)[nH][nH]c(=O)c3c2[C@@H](c2ccc(NC3CN(CCCF)C3)cn2)N1CC(F)(F)CO` [Example 21, reference compound], for which, in the assay on MCF-7 cells, the IC50 was more than 10000 nM and the “inhibitory effects on the proliferation of MCF-7 cells (in words)” value is given as “no activity”. Moreover, at ERα, the DC50 is more than 10000 nM and the “degradation of ERα (in words)” value is on record as “no activity”.

As for `C[C@@H]1Cc2cc3c(cc2[C@@H](c2ccc(NC4CN(CCCF)C4)cc2)N1CC(F)(F)F)OCO3` [Example 16, 1-(3-Fluoropropyl)-N-(4-((5R,7R)-7-methyl-6-(2,2,2-trifluoroethyl)-5,6,7,8-tetrahydro-[1,3]dioxolo[4,5-g]isoquinolin-5-yl)phenyl)azetidin-3-amine], on ER (estrogen receptor), the IC50 stood at 0.27 nM.

As usually defined, the IC50 is the concentration needed to halve the response being measured. Higher therefore signals weaker potency.
